Experimental data as given in US20150299125A1, “PRODRUG BIPYRIDYLAMINOPYRIDINES AS SYK INHIBITORS” (MERCK SHARP & DOHME CORP., priority 2012, published 2015).
Converted amounts (≈) assume the structure as drawn. Where two headings read alike, the source gives them in different places.

Experiments:
[1] = biological target: T1, recombinant human GST-Syk (Homo sapiens, UniProt P43405); assay: Homogeneous Time-Resolved Fluorescence (HTRF) assay for the recombinant human Syk enzyme; format: biochemical; details: ATP 25 μM
T1 construct: purchased Carna Biosciences 08-176
Experimental: Syk inhibition of the compounds of Formula (I) may be determined using the following assay protocol: Homogeneous Time-Resolved Fluorescence (HTRF) Assay for the Recombinant Human Syk Enzyme: A recombinant GST-hSyk fusion protein was used to measure potency of compounds to inhibit human Syk activity. […] Final volume of the reaction was 10 μL. Phosphorylation of the peptide was allowed to proceed for 45' at room temperature. To quench the reaction and detect the phosphorylated product, 2 nM of a Europium-anti-phosphotyrosine antibody (Perkin Elmer #AD0161) and 70 nM SA-APC (Perkin-Elmer #CR130-100) were added together in 15 mM Tris pH 7.5, 40 mM EDTA, 0.01% tween 20. Final volume of the quenching solution was 10 μL. The resulting HTRF signal was measured after 30 minutes on a EnVision (Perkin-Elmer) reader using a time-resolved fluorescence protocol.

[2] = Solubility in biorelevant fasted state simulated intestinal fluid (FaSSIF); format: physicochemical
Experimental: Solubility in Biorelevant Fasted State Simulated Intestinal Fluid (FaSSIF):
A 10 mM DMSO stock solution of compound to be tested is used. A 100 μM standard solution is generated by diluting 2.5 μL of the 10 mM stock solution with 247.5 μL of diluent (10% DMSO/10% MeCN/80% MeOH, v/v/v). A solubility solution is generated by diluting 5 μL of the 10 mM stock solution with 245 μL of FaSSIF (maximum solubility approximately 200 μM). […] The equilibrated solubility solution is filtered by centrifugation (3 minutes at 4000 rpm) using a 0.45 µm filter with a polypropylene membrane. The standard solution and the filtered equilibrated solubility solution are analyzed by HPLC/DAD. The solubility value is calculated by the following equation:
Solubility=(Peak area of sample/Peak area of standard)(Standard concentration)

[3] = recombinant human GST-Syk 5 pM, read-out: IC50
[4] = 25 °C, fassif, kinetic from dmso stock, Solubility

SMILES	IC50 [1, 3]	solubility [2, 4]	solubility ([2]; FaSSIF (fasted state simulated intestinal fluid), 25 °C, fassif, kinetic from dmso stock, FaSSIF, equilibrated overnight at 25° C., maximum solubility approximately 200 μM, read-out: Solubility)	IC50 ([1]; IC50, recombinant human GST-Syk 5 pM)	solubility ([2]; read-out: Solubility)
Cc1cc(Nc2cc(C(F)F)ccn2)nc(-c2ccc([C@](C)(O)[C@H]3CC[C@H](C(=O)OCCCCCCN(C)C)CC3)nc2)c1 [Example 1-25, 6-(dimethylamino)hexyl trans-4-[(1R)-1-(6-{[4-(difluoromethyl)pyridin-2-yl]amino}-4-methyl-2,3′-bipyridin-6′-yl)-1-hydroxyethyl] cyclohexanecarboxylate]	< 0.5 nM	73 µM (≈ 44.5 µg/mL)	–	–	–
CCCC[N+](CC)(CC)COC(=O)[C@H]1CC[C@H]([C@@](C)(O)c2ccc(-c3cc(C)cc(Nc4cc(C(F)F)ccn4)n3)cn2)CC1 [Example 5-6, N-{[({trans-4-[(1R)-1-(6-{[4-(difluoromethyl)pyridin-2-yl]amino}-4-methyl-2,3′-bipyridin-6′-yl)-1-hydroxyethyl]cyclohexyl}carbonyl)oxy]methyl}-N,N-diethylbutan-1-aminium]	1.1 nM	152 µM	–	–	–
CCC[N+](CCC)(CCC)COC(=O)[C@H]1CC[C@H]([C@@](C)(O)c2ccc(-c3cc(C)cc(Nc4cc(C(F)F)ccn4)n3)cn2)CC1 [Example 5-9, N-{[({trans-4-[(1R)-1-(6-{[4-(difluoromethyl)pyridin-2-yl]amino}-4-methyl-2,3′-bipyridin-6′-yl)-1-hydroxyethyl]cyclohexyl}carbonyl)oxy]methyl}-N,N-dipropylpropan-1-aminium]	1 nM	137 µM	–	–	–
Cc1cc(Nc2cc(C(F)F)ccn2)nc(-c2ccc([C@](C)(O)[C@H]3CC[C@H](C(=O)OC4CC5CCC(C4)N5)CC3)nc2)c1 (stereo partly drawn) [Example 1-18, 8-azabicyclo[3.2.1]oct-3-yl trans-4-[(1R)-1-(6-{[4-(difluoromethyl)pyridin-2-yl]amino}-4-methyl-2,3′-bipyridin-6′-yl)-1-hydroxyethyl] cyclohexanecarboxylate]	2.7 nM	–	109 µM (≈ 64.5 µg/mL)	–	–
Cc1cc(Nc2cc(C(F)F)ccn2)nc(-c2ccc([C@](C)(O)[C@H]3CC[C@H](C(=O)OC[N+](C)(C)Cc4ccccc4)CC3)nc2)c1 [Example 5-20, N-benzyl[({trans-4-[(1R)-1-(6-{[4-(difluoromethyl)pyridin-2-yl]amino}-4-methyl-2,3′-bipyridin-6′-yl)-1-hydroxyethyl]cyclohexyl}carbonyl)oxy]-N,N-dimethylmethanaminium]	0.8 nM	86 µM	–	–	–
Cc1cc(Nc2cc(C(F)F)ccn2)nc(-c2ccc([C@](C)(O)[C@H]3CC[C@H](C(=O)OC[C@@H]4COC(C)(C)O4)CC3)nc2)c1 [Example 1-15, [(4S)-2,2-dimethyl-1,3-dioxolan-4-yl]methyl trans 4-[(1R)-1-(6-{[4-(difluoromethyl)pyridin-2-yl]amino}-4-methyl-2,3′-bipyridin-6′-yl)-1-hydroxyethyl] cyclohexanecarboxylate]	18.5 nM	126 µM (≈ 75.2 µg/mL)	–	–	–
Cc1cc(Nc2cc(C(F)F)ccn2)nc(-c2ccc([C@](C)(O)[C@H]3CC[C@H](C(=O)OCCCN(C)C)CC3)nc2)c1 [Example 1-13, 3-(dimethylamino)propyl trans-4-[(1R)-1-(6-{[4-(difluoromethyl)pyridin-2-yl]amino}-4-methyl-2,3′-bipyridin-6′-yl)-1-hydroxyethyl] cyclohexanecarboxylate]	4.4 nM	140 µM (≈ 79.5 µg/mL)	–	–	–
Cc1cc(Nc2cc(C(F)F)ccn2)nc(-c2ccc([C@](C)(O)[C@H]3CC[C@H](C(=O)O)CC3)nc2)c1 [PrepEx 1-5, trans-4-[(1R)-(6-{[4-(Difluoromethyl)pyridin-2-yl]amino}-4-methyl-2,3′-bipyridin-6′-yl)-1-hydroxyethyl]cyclohexanecarboxylic acid]	–	< 3 µM	–	< 0.5 nM	–
Cc1cc(Nc2cc(C(F)F)ccn2)nc(-c2ccc([C@](C)(O)[C@H]3CC[C@H](C(=O)OC[N+](C)(C)CCN(C)C)CC3)nc2)c1 [Example 5-5, N-{[({trans-4-[(1R)-1-(6-{[4-(difluoromethyl)pyridin-2-yl]amino}-4-methyl-2,3′-bipyridin-6′-yl)-1-hydroxyethyl]cyclohexyl}carbonyl)oxy]methyl}-2-(dimethylamino)-N,N-dimethylethanaminium]	1.3 nM	53 µM	–	–	–
Cc1cc(Nc2cc(C(F)F)ccn2)nc(-c2ccc([C@](C)(O)[C@H]3CC[C@H](C(=O)O[C@H]4CC[C@H](N(C)C)CC4)CC3)nc2)c1 [Example 9-1, Trans-4-(Dimethylamino)cyclohexyl trans-4-[(1R)-1-(6-{[4-(difluoromethyl)pyridin-2-yl]amino}-4-methyl-2,3′-bipyridin-6′-yl)-1-hydroxyethyl]cyclohexanecarboxylate]	3.2 nM	162 µM (≈ 98.5 µg/mL)	–	–	–
CC(=O)C1CC[N+](C)(COC(=O)[C@H]2CC[C@H]([C@@](C)(O)c3ccc(-c4cc(C)cc(Nc5cc(C(F)F)ccn5)n4)cn3)CC2)CC1 (stereo partly drawn) [Example 5-17, 4-acetyl-1-{[({trans-4-[(1R)-1-(6-{[4-(difluoromethyl)pyridin-2-yl]amino}-4-methyl-2,3′-bipyridin-6′-yl)-1-hydroxyethyl]cyclohexyl}carbonyl)oxy]methyl}-1-methylpiperidinium]	1.6 nM	45 µM	–	–	–
Cc1cc(Nc2cc(C(F)F)ccn2)nc(-c2ccc([C@](C)(O)[C@H]3CC[C@H](C(=O)O[C@H]4C[C@H](N)C4)CC3)nc2)c1 [Example 1-5, trans-3-Aminocyclobutyl trans-4-[(1R)-1-(6-{[4-(difluoromethyl)pyridin-2-yl]amino}-4-methyl-2,3′-bipyridin-6′-yl)-1-hydroxyethyl]cyclohexanecarboxylate]	4.4 nM	–	–	–	164 µM (≈ 90.5 µg/mL)
Cc1cc(Nc2cc(C(F)F)ccn2)nc(-c2ccc([C@](C)(O)[C@H]3CC[C@H](C(=O)OC4CCNCC4)CC3)nc2)c1 [Example 1-17, piperidin-4-yl trans-4-[(1R)-1-(6-{[4-(difluoromethyl)pyridin-2-yl]amino}-4-methyl-2,3′-bipyridin-6′-yl)-1-hydroxyethyl] cyclohexanecarboxylate]	4.1 nM	136 µM (≈ 76.9 µg/mL)	–	–	–
Cc1cc(Nc2cc(C(F)F)ccn2)nc(-c2ccc([C@](C)(O)[C@H]3CC[C@H](C(=O)OC[N+](C)(C)CCOCCN(C)C)CC3)nc2)c1 [Example 5-23, N-{[({trans-4-[(1R)-1-(6-{[4-(difluoromethyl)pyridin-2-yl]amino}-4-methyl-2,3′-bipyridin-6′-yl)-1-hydroxyethyl]cyclohexyl}carbonyl)oxy]methyl}-2-[2-(dimethylamino)ethoxy]-N,N-dimethylethanaminium]	1.1 nM	98 µM	–	–	–
CCOCCOCCOC(=O)OC(OC(=O)[C@H]1CC[C@H]([C@@](C)(O)c2ccc(-c3cc(C)cc(Nc4cc(C(F)F)ccn4)n3)cn2)CC1)C(C)C (stereo partly drawn) [Example 2-16, 1-(1-methylethyl)-3-oxo-2,4,7,10-tetraoxadodec-1-yl trans-4-[(1R)-1-(6-{[4-(difluoromethyl)pyridin-2-yl]amino}-4-methyl-2,3′-bipyridin-6′-yl)-1-hydroxyethyl]cyclo hexanecarboxylate]	48.4 nM	48 µM (≈ 34.3 µg/mL)	–	–	–
Cc1cc(Nc2cc(C(F)F)ccn2)nc(-c2ccc([C@](C)(O)[C@H]3CC[C@H](C(=O)O[C@H]4C[C@H](N)C4)CC3)nc2)c1 [Example 1-19, trans-3-aminocyclobutyl trans-4-[(1R)-1-(6-{[4-(difluoromethyl)pyridin-2-yl]amino}-4-methyl-2,3′-bipyridin-6′-yl)-1-hydroxyethyl] cyclohexanecarboxylate]	4.4 nM	98 µM (≈ 54.1 µg/mL)	–	–	–
